Measured values reported in ChEMBL document CHEMBL1201862, “PubChem BioAssay data set” (2004).
Calls of active or inactive are those of the source. Unless noted, no cut-off for these calls is given here.

Columns and labels:
Assay type in all cases: functional
[1] = biological target: T1, Protein disulfide-isomerase (Homo sapiens, UniProt P07237); test: PDI inhibitors, insulin aggregation turbidity, dose response, biochemical, absorbance, cherry-picked samples (AID 602350)
[2] = biological target: T1, Protein disulfide-isomerase; test: PDI inhibitors, insulin turbidity readout, dose response, biochemical, absorbance, cherry-picked samples, set 2 (AID 624274)
[3] = biological target: T2, Apoptotic protease-activating factor 1 (Homo sapiens, UniProt O14727); test: SAR analysis of small molecule inhibitors of Apaf-1 in a Fluorescent assay.; settings: read-out: IC50_Mean
T2 sequence (O14727 whole entry): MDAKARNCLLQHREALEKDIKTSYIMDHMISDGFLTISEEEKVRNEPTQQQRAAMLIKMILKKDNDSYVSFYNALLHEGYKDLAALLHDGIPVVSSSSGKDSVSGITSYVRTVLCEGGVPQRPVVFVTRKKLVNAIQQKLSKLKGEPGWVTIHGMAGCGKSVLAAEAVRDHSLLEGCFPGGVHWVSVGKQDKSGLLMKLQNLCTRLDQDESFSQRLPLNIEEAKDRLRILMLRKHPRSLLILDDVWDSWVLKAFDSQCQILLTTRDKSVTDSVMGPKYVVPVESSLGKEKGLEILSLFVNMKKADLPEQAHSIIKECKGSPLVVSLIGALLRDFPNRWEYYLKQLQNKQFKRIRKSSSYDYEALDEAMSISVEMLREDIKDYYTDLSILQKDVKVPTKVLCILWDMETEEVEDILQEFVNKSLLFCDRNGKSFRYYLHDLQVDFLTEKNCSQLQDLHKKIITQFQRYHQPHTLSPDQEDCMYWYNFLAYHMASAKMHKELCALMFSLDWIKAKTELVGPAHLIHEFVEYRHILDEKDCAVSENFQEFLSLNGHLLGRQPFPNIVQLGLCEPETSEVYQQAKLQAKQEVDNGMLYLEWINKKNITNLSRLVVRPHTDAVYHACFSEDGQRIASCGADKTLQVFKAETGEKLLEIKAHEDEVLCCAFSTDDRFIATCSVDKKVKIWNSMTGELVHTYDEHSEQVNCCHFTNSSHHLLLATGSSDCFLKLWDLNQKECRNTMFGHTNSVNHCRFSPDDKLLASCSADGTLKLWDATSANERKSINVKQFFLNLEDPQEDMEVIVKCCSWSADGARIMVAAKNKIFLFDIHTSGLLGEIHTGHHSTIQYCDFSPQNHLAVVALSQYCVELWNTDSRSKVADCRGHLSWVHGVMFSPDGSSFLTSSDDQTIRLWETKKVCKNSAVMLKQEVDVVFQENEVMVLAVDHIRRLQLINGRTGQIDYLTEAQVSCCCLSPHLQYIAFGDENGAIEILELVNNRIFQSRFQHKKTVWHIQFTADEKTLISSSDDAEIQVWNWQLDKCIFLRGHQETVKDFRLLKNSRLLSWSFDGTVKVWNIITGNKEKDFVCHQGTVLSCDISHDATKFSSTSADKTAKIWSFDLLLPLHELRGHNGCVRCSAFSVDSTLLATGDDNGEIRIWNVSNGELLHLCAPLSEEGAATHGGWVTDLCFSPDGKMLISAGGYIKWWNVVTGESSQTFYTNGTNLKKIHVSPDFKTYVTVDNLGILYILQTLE

[4] = biological target: Multidrug resistance protein CDR2 (Candida albicans (strain SC5314 / ATCC MYA-2876) (Yeast), UniProt P78595); test: CaCDR2 efflux pump inhibitors in yeast, dose response, S. cerevisiae AD1-8u, singleplex, Cherry Pick1 hits (AID 588604)
Multidrug resistance protein CDR2, sequence (P78595 whole entry): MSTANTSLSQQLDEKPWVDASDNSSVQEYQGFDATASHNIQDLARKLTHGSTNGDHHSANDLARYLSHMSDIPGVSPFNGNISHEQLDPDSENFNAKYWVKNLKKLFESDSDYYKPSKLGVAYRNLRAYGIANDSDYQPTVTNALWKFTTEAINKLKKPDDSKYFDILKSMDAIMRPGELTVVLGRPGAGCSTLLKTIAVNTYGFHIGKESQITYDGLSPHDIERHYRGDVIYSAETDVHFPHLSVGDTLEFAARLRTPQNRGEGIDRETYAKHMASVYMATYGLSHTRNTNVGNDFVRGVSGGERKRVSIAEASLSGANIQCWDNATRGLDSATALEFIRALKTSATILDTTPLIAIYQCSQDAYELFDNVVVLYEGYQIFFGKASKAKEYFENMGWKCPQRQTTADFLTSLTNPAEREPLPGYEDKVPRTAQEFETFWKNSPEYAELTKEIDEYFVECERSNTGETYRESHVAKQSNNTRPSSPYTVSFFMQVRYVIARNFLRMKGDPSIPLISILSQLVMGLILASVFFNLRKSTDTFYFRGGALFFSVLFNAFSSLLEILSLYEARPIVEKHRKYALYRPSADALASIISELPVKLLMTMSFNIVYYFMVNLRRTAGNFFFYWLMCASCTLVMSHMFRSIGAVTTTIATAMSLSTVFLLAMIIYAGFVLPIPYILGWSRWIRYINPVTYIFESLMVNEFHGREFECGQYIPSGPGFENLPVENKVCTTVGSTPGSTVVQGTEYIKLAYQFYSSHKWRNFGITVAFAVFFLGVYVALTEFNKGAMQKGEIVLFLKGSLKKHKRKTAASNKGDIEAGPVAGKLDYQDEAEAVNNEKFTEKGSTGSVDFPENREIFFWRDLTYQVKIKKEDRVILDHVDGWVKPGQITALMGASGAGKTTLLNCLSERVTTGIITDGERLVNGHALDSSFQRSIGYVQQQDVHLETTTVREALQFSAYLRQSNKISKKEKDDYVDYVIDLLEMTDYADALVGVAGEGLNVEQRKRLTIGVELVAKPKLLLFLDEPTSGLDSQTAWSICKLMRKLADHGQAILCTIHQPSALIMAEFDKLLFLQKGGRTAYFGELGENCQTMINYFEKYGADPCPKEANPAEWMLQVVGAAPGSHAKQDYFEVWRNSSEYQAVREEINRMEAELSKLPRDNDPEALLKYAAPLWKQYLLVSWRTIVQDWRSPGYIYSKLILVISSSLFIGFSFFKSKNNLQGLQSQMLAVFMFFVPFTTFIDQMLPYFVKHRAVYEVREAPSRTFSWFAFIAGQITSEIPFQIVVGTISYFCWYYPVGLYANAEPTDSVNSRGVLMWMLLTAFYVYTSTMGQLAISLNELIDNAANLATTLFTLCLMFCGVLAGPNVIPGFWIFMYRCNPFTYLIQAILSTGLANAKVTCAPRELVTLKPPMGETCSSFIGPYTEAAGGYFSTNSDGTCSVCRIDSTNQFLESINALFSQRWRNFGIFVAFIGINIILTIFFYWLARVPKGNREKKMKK

[5] = biological target: T3, High affinity choline transporter 1 (Homo sapiens, UniProt Q9GZV3); test: CHT inhibitors, dose response, cell-based, 5-point CRC, membrane potential dye (AID 504840)
T3 sequence (Q9GZV3 whole entry): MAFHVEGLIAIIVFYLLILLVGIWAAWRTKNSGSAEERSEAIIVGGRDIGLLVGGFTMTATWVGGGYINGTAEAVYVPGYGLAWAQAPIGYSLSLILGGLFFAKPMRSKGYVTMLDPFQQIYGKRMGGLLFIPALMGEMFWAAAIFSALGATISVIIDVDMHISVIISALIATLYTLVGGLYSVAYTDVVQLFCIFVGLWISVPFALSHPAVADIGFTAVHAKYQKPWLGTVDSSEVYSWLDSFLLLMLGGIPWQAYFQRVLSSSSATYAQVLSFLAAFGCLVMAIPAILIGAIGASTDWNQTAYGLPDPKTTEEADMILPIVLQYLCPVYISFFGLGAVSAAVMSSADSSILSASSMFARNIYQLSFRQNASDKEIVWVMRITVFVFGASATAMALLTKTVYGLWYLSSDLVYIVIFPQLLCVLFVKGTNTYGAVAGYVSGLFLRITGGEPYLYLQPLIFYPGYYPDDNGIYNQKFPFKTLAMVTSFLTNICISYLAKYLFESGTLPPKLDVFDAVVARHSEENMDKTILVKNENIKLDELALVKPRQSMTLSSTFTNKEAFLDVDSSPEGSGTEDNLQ

[6] = biological target: T3, High affinity choline transporter 1; test: CHT inhibitors, dose response, cell-based, 10-point CRC, membrane potential dye (AID 588401);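 note: membrane potential dye fluorescence of choline-evoked depolarization via CHT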
[7] = biological target: Sphingosine 1-phosphate receptor 3 (Homo sapiens, UniProt Q99500); test: Late-stage fluorescence-based dose-response cell-based counterscreen assay to identify agonists of the Sphingosine 1-Phosphate Receptor 4 (S1P4): Sphingosine 1-Phosphate Receptor 3 (S1P3) agonist assay Set 2.
Sphingosine 1-phosphate receptor 3, sequence (Q99500 whole entry): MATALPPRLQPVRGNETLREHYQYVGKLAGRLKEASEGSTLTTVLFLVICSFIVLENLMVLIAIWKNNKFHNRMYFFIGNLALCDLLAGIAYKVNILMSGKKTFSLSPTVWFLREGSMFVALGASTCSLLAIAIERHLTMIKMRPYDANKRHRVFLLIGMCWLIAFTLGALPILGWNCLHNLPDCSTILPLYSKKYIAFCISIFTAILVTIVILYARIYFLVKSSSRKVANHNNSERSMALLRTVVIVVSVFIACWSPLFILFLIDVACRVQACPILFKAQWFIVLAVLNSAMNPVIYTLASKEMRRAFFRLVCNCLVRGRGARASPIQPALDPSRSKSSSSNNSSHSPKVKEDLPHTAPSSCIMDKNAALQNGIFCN

[8] = biological target: Sphingosine 1-phosphate receptor 2 (Homo sapiens, UniProt O95136); test: S1P2 receptor agonists, human, late-stage follow-up, counter-screen for S1P4 agonist project, cell-based, fluorescence, set 2 (AID 504873)
Sphingosine 1-phosphate receptor 2, sequence (O95136 whole entry): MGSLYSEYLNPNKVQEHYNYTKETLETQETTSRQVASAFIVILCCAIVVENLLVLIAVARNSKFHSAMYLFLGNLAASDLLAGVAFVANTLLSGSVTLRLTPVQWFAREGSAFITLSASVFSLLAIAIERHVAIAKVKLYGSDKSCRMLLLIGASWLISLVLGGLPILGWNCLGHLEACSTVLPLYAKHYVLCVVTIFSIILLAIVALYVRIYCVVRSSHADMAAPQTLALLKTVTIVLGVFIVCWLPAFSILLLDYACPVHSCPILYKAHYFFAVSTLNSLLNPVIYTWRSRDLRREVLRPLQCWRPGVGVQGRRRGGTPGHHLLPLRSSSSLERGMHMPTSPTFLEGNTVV

[9] = biological target: Sphingosine 1-phosphate receptor 1 (Homo sapiens, UniProt P21453); test: Late-stage fluorescence-based dose-response cell-based counterscreen assay to identify agonists of the Sphingosine 1-Phosphate Receptor 4 (S1P4): Sphingosine 1-Phosphate Receptor 1 (S1P1) agonist assay Set 2.
Sphingosine 1-phosphate receptor 1, sequence (P21453 whole entry): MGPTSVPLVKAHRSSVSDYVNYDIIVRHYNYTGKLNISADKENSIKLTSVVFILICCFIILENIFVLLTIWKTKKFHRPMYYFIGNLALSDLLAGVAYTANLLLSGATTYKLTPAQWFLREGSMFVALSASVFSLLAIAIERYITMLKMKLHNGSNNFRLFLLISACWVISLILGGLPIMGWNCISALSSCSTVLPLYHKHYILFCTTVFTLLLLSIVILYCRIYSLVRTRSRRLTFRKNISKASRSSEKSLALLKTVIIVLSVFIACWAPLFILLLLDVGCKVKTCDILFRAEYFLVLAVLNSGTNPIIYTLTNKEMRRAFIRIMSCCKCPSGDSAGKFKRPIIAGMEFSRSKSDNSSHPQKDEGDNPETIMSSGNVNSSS

[10] = biological target: Sphingosine 1-phosphate receptor 5 (Homo sapiens, UniProt Q9H228); test: S1P5 receptor agonists, human, late-stage follow-up, counter-screen for S1P4 agonist project, cell-based, fluorescence, set 2 (AID 504867)
Sphingosine 1-phosphate receptor 5, sequence (Q9H228 whole entry): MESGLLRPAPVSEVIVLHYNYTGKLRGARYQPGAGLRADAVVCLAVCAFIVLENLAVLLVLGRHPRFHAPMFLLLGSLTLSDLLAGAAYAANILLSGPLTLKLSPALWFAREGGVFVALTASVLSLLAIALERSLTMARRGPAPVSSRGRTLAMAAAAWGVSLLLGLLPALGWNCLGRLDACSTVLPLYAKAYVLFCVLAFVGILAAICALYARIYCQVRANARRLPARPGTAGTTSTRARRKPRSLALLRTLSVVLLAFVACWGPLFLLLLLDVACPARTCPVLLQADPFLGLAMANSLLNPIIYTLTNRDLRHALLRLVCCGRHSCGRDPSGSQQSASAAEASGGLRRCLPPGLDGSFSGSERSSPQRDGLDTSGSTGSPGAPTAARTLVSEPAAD

[11] = THP-1 cell cytotoxicity, cytotoxicity control, set 5 (AID 588443)
[12] = biological target: Melanin-concentrating hormone receptor 1 (Homo sapiens, UniProt Q99705); test: Late-stage fluorescence-based counterscreen for antagonists of the G-protein coupled receptor 7 (GPR7): cell-based dose response assay to identify antagonists of the melanin-concentrating hormone receptor 1 (MCHR1) Set 6.
Melanin-concentrating hormone receptor 1, sequence (Q99705 whole entry): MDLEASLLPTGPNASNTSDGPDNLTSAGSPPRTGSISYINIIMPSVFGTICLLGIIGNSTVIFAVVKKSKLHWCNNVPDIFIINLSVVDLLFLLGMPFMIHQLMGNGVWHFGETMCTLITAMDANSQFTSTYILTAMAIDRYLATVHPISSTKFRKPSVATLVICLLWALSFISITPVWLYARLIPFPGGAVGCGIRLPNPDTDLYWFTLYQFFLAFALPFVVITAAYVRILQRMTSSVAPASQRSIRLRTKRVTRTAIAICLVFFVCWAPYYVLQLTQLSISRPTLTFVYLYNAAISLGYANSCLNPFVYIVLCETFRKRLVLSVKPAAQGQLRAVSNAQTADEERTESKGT

[13] = biological target: T4, Neuropeptides B/W receptor type 1 (Homo sapiens, UniProt P48145); test: GPR7 antagonist potency, late-stage follow-up, cell-based, fluorescence, dose response, set 6 (AID 588583)
T4 sequence (P48145 whole entry): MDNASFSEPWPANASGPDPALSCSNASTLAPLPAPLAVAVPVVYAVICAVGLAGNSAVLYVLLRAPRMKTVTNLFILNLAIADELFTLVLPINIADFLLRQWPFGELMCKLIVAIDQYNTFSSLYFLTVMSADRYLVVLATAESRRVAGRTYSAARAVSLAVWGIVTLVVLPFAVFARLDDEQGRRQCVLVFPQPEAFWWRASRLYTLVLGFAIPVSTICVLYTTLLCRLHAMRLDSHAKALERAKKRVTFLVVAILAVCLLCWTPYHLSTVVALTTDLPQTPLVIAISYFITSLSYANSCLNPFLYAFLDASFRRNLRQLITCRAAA

T1 sequence (P07237 whole entry): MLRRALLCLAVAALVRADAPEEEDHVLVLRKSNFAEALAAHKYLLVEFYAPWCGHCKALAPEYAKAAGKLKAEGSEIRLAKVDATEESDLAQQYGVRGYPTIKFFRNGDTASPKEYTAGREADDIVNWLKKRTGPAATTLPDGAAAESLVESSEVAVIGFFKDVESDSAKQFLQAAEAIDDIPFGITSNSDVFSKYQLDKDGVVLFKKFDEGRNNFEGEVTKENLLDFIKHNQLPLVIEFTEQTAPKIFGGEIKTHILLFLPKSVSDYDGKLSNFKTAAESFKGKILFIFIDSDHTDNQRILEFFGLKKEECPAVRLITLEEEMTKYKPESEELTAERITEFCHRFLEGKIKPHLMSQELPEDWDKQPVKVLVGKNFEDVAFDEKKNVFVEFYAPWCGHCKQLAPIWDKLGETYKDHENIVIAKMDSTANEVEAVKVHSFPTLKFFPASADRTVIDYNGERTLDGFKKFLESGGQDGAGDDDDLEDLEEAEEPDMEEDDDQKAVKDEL

In the case of `CN(C)C1(c2nnnn2CCOC(=O)Nc2ccc(Cl)cc2)CCCCC1`, the AC50 [1] is reported as < 0.009 µM (active) and the AC50 [2] is reported as 0.009 µM (active).
For `O=C(Nc1ccc2c(c1)C(=O)NC2=O)c1nc2ccccc2s1`, the IC50 [3] was > 100 µM (inactive).
With `COc1cccc(-c2sc3ccc(OC)cc3c2-c2ccc(OCCN3CCCC3)cc2)c1` the EC50 [4] was 10.2 µM (active).
With `CC(C)CC(=O)N=c1nc(S)ss1` the IC50 [5] was 3.02 µM (active) and the IC50 [6] was 3.98 µM (active).
With `CC/N=C1/S/C(=C/c2cc(C)n(-c3ccc(F)cc3F)c2C)C(=O)N1CC` the EC50 [7] was > 25 µM (inactive), the EC50 [8] was > 25 µM (inactive) and the EC50 [9] was 0.816 µM (active). For the same compound, the EC50 [10] was 6.18 µM (active).
For `CC(C)OC(=O)CSc1ncnc2c1cnn2-c1ccccc1`, the CC50 [11] was > 100 µM (active).
In the case of `N#CC(c1ccc(F)cc1)c1c(Cl)cnn(Cc2cccc3ccccc23)c1=O` (stereo not drawn), the IC50 [12] is reported as 0.154 µM (active) and the IC50 [13] is reported as 0.154 µM (active).
